For one molecule, Kd results are on record in PMC5461540, “MOB1 Mediated Phospho-recognition in the Core Mammalian Hippo Pathway” (Molecular & Cellular Proteomics : MCP, 2017).

Changes are numbered by the printed parent chain. Read-outs that look alike come from different tables or passages of the source. Where a SMILES comes first, the peptide text is derived from it.

Experiment [1] addresses T1, MOB3A (Homo sapiens, UniProt Q96BX8).
T1 construct: MOB3A (2–217, NP_570719); 6xHis (N, cleaved yes); GST (N, cleaved yes); made in house; host or cells: E. coli BL21 (DE3) CodonPlus RIL
T1 sequence (Q96BX8 2-217): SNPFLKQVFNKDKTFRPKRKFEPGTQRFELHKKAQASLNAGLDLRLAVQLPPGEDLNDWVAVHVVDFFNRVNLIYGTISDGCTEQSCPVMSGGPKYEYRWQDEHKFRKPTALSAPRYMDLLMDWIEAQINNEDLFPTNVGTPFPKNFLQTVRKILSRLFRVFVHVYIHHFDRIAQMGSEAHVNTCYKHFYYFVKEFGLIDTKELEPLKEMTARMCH
Put plainly: Fluorescence polarization peptide binding assay, MOB3A. As to conditions: Fig. 5A, FP, 20 nM FITC labeled peptide, pH 7.5, mean ± S.E. (n = 3), read-out: Kd, μM (to MST1 pT367 peptide). From the text: (§1) Human MST1 kinase domain (amino acids 2–326, corresponding to NCBI RefSeq protein NP_006273), MST2 kinase domain (2–322, NP_006272), MOB1B (2–216, NP_001231695), MOB1A (2–216, NP_060691) wild-type and indicated MOB1A mutant proteins, MOB2 (2–237, NP_001165694), MOB3A (2–217, NP_570719), MOB3B (2–216, NP_079037), MOB3C (2–216, NP_660322), MOB4 (2–225, NP_056202), MOB4^RRR→AAA (2–225), and yeast Mob1 (79–314, NP_012160) were expressed in E. coli BL21 (DE3) CodonPlus RIL cells as N-terminal dual 6xhistidine (HIS) and glutathione S-transferase (GST), Tobacco Etch Virus (TEV) cleavable, fusion proteins using a modified pETM-30 vector. MOB wild-type and mutants were purified in batch on glutathione-Sepharose resin (GE Healthcare, Uppsala, Sweden) and eluted by cleavage from the affinity tags with HIS tagged TEV protease. […]
(§2) MST1 phosphopeptides encompassing pT353 and pT367 (15-mers) used for crystallization and FITC labeled nonphosphorylated and phosphorylated MST1 T353 peptides, T367 peptides, T329-T340 peptides, T380-T387 peptides and optimized Nud1-like peptides for fluorescence polarization binding experiments were purchased from Biomatik (Cambridge, ON). […]
(§3) Twelve-point fluorescence polarization binding measurements were performed in triplicate in 384-well plate format using an Analyst HT (Artisan-Scientific, Sunnyvale, CA) reader. […]
Background: Fluorescence polarisation rises when a labelled molecule tumbles more slowly, as on binding a larger partner.

Experiment [2] has as its target T2, MOB1A (Homo sapiens, UniProt Q9H8S9).
T2 construct: MOB1A (2–216, NP_060691); 6xHis (N, cleaved yes); GST (N, cleaved yes); made in house; host or cells: E. coli BL21 (DE3) CodonPlus RIL
T2 sequence (Q9H8S9 2-216): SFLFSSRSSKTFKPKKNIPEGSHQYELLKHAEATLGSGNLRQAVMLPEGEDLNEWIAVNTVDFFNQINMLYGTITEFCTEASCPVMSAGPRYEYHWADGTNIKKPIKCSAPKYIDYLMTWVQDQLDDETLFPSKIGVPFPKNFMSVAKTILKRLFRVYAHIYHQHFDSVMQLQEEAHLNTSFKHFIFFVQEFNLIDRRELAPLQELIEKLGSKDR
Put plainly: Fluorescence polarization peptide binding assay, MOB1A wild-type. The following applies: FP, 20 nM FITC labeled peptide, pH 7.5. From the text: Human MST1 kinase domain (amino acids 2–326, corresponding to NCBI RefSeq protein NP_006273), MST2 kinase domain (2–322, NP_006272), MOB1B (2–216, NP_001231695), MOB1A (2–216, NP_060691) wild-type and indicated MOB1A mutant proteins, MOB2 (2–237, NP_001165694), MOB3A (2–217, NP_570719), MOB3B (2–216, NP_079037), MOB3C (2–216, NP_660322), MOB4 (2–225, NP_056202), MOB4^RRR→AAA (2–225), and yeast Mob1 (79–314, NP_012160) were expressed in E. coli BL21 (DE3) CodonPlus RIL cells as N-terminal dual 6xhistidine (HIS) and glutathione S-transferase (GST), Tobacco Etch Virus (TEV) cleavable, fusion proteins using a modified pETM-30 vector. MOB wild-type and mutants were purified in batch on glutathione-Sepharose resin (GE Healthcare, Uppsala, Sweden) and eluted by cleavage from the affinity tags with HIS tagged TEV protease. TEV protease was removed from the eluted protein by subtractive immobilized-metal affinity chromatography. Cleaved protein was then concentrated and buffer exchanged by size exclusion chromatography (SEC) using a Superdex 75 120 ml column (GE Healthcare). For GST pull-downs and Far-Western analysis, the TEV cleavage step was omitted.
MST1 phosphopeptides encompassing pT353 and pT367 (15-mers) used for crystallization and FITC labeled nonphosphorylated and phosphorylated MST1 T353 peptides, T367 peptides, T329-T340 peptides, T380-T387 peptides and optimized Nud1-like peptides for fluorescence polarization binding experiments were purchased from Biomatik (Cambridge, ON). Peptide sequences used for crystallization studies are: T353, […](p)TMIEH and T367, […](p)TMVINA. All peptides used for biophysical studies are listed in supplemental Table S1.
Twelve-point fluorescence polarization binding measurements were performed in triplicate in 384-well plate format using an Analyst HT (Artisan-Scientific, Sunnyvale, CA) reader. Each 20 μl measurement condition contained 20 nM FITC labeled MST1 peptide or Nud1-like peptide and the indicated concentration of MOB proteins in 25 mM HEPES pH 7.5, 150 mM NaCl, 2 mM DTT, and 1 mg/ml bovine serum albumin (BSA). Kd values were obtained by fitting the results to a one site-specific binding model using GraphPad Prism.

Experiment [3] deals with T3, MOB3C (Homo sapiens, UniProt Q70IA8).
T3 construct: MOB3C (2–216, NP_660322); 6xHis (N, cleaved yes); GST (N, cleaved yes); made in house; host or cells: E. coli BL21 (DE3) CodonPlus RIL
T3 sequence (Q70IA8 2-216): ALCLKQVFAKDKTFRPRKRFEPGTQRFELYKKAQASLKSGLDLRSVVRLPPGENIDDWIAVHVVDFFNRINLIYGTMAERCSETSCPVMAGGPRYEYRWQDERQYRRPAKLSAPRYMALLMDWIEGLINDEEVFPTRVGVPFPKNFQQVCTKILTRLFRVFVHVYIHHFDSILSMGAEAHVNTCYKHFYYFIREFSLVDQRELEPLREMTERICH
Put plainly: Fluorescence polarization peptide binding assay, MOB3C. As to conditions: Fig. 5A, FP, 20 nM FITC labeled peptide, pH 7.5, mean ± S.E. (n = 3), read-out: Kd, μM (to MST1 pT367 peptide).
Excerpt: as §1, §2, §3

For experiment [4], the target named is T4, MOB1A KRR→3A mutant (Homo sapiens, UniProt Q9H8S9, K153A/R154A/R157A).
T4 construct: MOB1A (2–216, NP_060691) wild-type and indicated MOB1A mutant proteins; 6xHis (N, cleaved yes); GST (N, cleaved yes); made in house; host or cells: E. coli BL21 (DE3) CodonPlus RIL
T4 sequence (Q9H8S9 2-216 K153A/R154A/R157A): T2 sequence (Q9H8S9 2-216) with K152A, R153A, R156A
Put plainly: Fluorescence polarization peptide binding assay, MOB1A KRR→3A mutant (K153, R154, R157 to alanine). The following applies: Fig. 2B, MOB1A KRR→3A (K153, R154, R157 to alanine); FP, 20 nM FITC labeled peptide, pH 7.5; n = 3; N.D. = Kd could not be determined.
Excerpt: as §1, §2, §3

In experiment [5] the target is T5, MOB4 (Homo sapiens, UniProt Q9Y3A3).
T5 construct: MOB4 (2–225, NP_056202); 6xHis (N, cleaved yes); GST (N, cleaved yes); made in house; host or cells: E. coli BL21 (DE3) CodonPlus RIL
T5 sequence (Q9Y3A3 2-225): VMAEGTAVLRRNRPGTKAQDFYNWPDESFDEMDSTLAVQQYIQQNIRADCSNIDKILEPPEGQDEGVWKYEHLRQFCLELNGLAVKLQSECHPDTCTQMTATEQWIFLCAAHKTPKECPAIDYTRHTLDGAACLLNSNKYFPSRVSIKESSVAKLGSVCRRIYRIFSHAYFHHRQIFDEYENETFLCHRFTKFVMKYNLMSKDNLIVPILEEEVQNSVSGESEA
As to the kind of experiment: Fluorescence polarization peptide binding assay, MOB4. The following applies: Fig. 5A, FP, 20 nM FITC labeled peptide, pH 7.5, mean ± S.E. (n = 3), read-out: Kd, μM (to MST1 pT367 peptide).
Excerpt: as §1, §2, §3

In experiment [6] the target is T6, MOB3B (Homo sapiens, UniProt Q86TA1).
T6 construct: MOB3B (2–216, NP_079037); 6xHis (N, cleaved yes); GST (N, cleaved yes); made in house; host or cells: E. coli BL21 (DE3) CodonPlus RIL
T6 sequence (Q86TA1 2-216): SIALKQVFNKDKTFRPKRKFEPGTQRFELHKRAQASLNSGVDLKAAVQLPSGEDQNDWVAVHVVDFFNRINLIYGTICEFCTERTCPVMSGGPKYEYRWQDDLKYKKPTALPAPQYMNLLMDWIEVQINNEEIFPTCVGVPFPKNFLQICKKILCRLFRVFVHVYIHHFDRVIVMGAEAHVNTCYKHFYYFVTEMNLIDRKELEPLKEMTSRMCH
Put plainly: Fluorescence polarization peptide binding assay, MOB3B. The following applies: Fig. 5A, FP, 20 nM FITC labeled peptide, pH 7.5, mean ± S.E. (n = 3), read-out: Kd, μM (to MST1 pT367 peptide).
Excerpt: as §1, §2, §3

Usually Kd stands for the free concentration of one partner at which half of the binding sites on the other are occupied at equilibrium, for simple one-to-one binding.

Take `CC[C@H](C)[C@H](NC(=O)[C@@H](NC(=O)[C@H](CCSC)NC(=O)[C@@H](NC(=O)CNC(=O)[C@H](CC(C)C)NC(=O)[C@H](CCC(N)=O)NC(=O)[C@H](CO)NC(=O)[C@@H]1CCCN1C(=O)[C@H](CC(C)C)NC(=O)[C@@H](NC(=O)[C@H](CC(=O)O)NC(=O)[C@@H](N)CC(=O)O)[C@@H](C)O)[C@@H](C)OP(=O)(O)O)C(C)C)C(=O)N[C@@H](CC(N)=O)C(=O)N[C@@H](C)C(=O)O` [pT367] (HELM PEPTIDE1{D.D.T.L.P.S.Q.L.G.[C[C@@H](OP(=O)(O)O)[C@H](N[*:1])C(=O)[*:2]].M.V.I.N.A}$$$$V2.0): the Kd was 2 to 3 µM in experiment [1]; 0.68 µM in experiment [2] (recombinant wild-type MOB1A, read-out: Kd); 0.67 ± 0.09 µM in experiment [2] (Fig. 5A, MOB1A, mean ± S.E. (n = 3), read-out: Kd, μM (to MST1 pT367 peptide)); 2 to 3 µM in experiment [3]; “no measurable binding” in experiment [4]; 12.2 µM in experiment [5]. Also, the dissociation constant Kd in experiment [6] was in the range of 2 to 3 µM.
